Laboratory results as given in ChEMBL document CHEMBL4229407, “Optimization and in vivo evaluation of pyrazolopyridines as a potent and selective PI3Kδ inhibitor” (Bioorg Med Chem, 2018).
One block for each molecule: values may come before it.

Assays:
[1] = target: PI3-kinase p110-delta/p85-alpha (Homo sapiens, UniProt O00329); assay: Inhibition of recombinant human full length N-terminal His6-tagged PI3K p110delta/p85alpha expressed in baculovirus infected Sf21 cells using PIP2 as substrate after 35 to 40 mins by HTRF assay
PI3-kinase p110-delta/p85-alpha, sequence (P27986 whole entry): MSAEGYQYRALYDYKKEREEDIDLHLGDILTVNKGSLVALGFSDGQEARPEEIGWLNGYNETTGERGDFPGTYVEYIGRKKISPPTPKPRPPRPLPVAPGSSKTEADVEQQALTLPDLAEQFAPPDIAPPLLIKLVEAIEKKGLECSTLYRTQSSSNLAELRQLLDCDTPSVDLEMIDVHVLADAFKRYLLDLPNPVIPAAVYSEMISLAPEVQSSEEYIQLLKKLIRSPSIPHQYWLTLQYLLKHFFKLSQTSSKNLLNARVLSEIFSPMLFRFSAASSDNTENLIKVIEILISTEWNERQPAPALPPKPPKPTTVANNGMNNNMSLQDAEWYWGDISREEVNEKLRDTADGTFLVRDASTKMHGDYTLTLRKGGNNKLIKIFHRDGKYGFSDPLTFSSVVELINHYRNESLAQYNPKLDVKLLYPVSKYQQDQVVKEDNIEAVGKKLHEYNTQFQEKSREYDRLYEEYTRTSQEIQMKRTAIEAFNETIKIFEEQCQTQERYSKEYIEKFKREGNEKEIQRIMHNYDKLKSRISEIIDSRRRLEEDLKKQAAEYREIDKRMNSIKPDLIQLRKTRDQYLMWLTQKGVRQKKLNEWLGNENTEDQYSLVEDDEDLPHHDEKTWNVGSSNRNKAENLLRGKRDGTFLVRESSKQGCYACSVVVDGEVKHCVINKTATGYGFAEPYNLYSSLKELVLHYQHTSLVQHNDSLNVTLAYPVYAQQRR
PI3-kinase p110-delta/p85-alpha, sequence (O00329 whole entry): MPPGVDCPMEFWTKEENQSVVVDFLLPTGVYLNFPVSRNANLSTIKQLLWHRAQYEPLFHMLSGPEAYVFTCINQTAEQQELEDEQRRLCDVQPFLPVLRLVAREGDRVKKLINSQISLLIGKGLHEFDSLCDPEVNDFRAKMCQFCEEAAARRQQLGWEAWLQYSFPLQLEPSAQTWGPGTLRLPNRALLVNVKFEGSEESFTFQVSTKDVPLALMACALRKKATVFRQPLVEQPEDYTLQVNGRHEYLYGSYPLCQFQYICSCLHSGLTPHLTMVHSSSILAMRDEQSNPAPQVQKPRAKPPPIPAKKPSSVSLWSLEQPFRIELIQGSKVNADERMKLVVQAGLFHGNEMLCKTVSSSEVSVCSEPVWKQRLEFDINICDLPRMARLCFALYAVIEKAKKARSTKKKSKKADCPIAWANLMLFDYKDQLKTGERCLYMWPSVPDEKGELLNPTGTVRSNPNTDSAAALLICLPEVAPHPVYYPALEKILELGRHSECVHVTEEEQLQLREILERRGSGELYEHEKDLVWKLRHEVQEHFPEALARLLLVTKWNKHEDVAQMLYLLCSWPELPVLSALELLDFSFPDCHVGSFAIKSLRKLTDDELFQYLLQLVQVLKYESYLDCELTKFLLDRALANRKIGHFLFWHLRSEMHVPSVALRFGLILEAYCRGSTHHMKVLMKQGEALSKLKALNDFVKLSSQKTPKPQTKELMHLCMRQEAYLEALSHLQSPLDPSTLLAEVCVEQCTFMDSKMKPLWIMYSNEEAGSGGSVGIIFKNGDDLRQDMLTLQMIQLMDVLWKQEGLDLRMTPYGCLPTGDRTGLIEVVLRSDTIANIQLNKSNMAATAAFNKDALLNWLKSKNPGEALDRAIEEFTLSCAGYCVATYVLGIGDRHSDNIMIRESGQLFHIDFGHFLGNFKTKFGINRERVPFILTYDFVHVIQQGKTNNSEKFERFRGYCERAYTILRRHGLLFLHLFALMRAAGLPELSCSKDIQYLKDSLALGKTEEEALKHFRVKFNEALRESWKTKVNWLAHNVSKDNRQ

[2] = Total clearance in Balb/c mouse at 1 mg/kg, iv or 3 mg/kg, po by LC-MS/MS analysis; assay type: ADME, organism-based; conditions: in vivo
Cytochrome P450 3A4 = Cytochrome P450 3A4 (Homo sapiens, UniProt P08684); assay: Inhibition of CYP3A4 in human liver microsomes at 5 uM using midazolam as substrate after 20 mins in presence of NADPH by LC-MS/MS analysis; assay type: ADME
Cytochrome P450 3A4, sequence (P08684 whole entry): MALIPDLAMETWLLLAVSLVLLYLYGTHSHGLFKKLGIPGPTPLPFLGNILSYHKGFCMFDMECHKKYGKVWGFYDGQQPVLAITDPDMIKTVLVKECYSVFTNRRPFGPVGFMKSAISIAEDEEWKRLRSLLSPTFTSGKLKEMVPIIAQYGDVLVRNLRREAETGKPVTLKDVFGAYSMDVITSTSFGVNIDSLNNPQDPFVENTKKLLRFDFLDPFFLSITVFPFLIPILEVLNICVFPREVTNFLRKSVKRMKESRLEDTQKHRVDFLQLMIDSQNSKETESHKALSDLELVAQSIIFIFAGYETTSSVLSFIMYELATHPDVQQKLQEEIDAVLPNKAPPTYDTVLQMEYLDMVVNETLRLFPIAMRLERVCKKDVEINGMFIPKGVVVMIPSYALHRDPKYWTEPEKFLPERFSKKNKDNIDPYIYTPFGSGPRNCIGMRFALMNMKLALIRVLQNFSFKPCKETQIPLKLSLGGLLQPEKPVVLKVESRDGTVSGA

Mus musculus [3] = assay: In vivo inhibition of PI3Kdelta in Balb/c mouse assessed as reduction in trinitrophenylated aminoethylcarboxymethyl-Ficoll-induced antibody production in plasma at 1 mg/kg, po administered twice daily measured on day 4 by ELISA relative to control; assay type: functional; conditions: 96 h
[4] = Oral bioavailability in Balb/c mouse at 3 mg/kg by LC-MS/MS analysis; assay type: ADME, organism-based; conditions: in vivo
[5] = Aqueous solubility in pH 6.8 solution at 130 uM after 20 hrs by liquid chromatography method; assay type: physicochemical; conditions: aqueous pH 6.8 solution
[6] = Cmax in Balb/c mouse at 1 mg/kg, iv or 3 mg/kg, po by LC-MS/MS analysis; assay type: ADME, organism-based; conditions: in vivo
[7] = Intrinsic clearance in CD-1 mouse liver microsomes at 0.2 uM up to 45 mins in presence of NADPH by LC-MS/MS analysis; assay type: ADME, microsome; conditions: read-out: CLH
[8] = AUC (0 to 24 hrs) in Balb/c mouse at 1 mg/kg, iv or 3 mg/kg, po by LC-MS/MS analysis; assay type: ADME, organism-based; conditions: in vivo
[9] = Half life in Balb/c mouse at 1 mg/kg, iv or 3 mg/kg, po by LC-MS/MS analysis; assay type: ADME, organism-based; conditions: in vivo
[10] = Volume of distribution at steady state in Balb/c mouse at 1 mg/kg, iv or 3 mg/kg, po by LC-MS/MS analysis; assay type: ADME, organism-based; conditions: in vivo, read-out: Vdss
[11] = Fraction unbound in mouse plasma at 2 uM after 6 hrs by LC-MS/MS based equilibrium dialysis method; assay type: ADME, cell-free
Mus musculus [12] = assay: In vivo inhibition of PI3Kdelta in Balb/c mouse assessed as reduction in trinitrophenylated aminoethylcarboxymethyl-Ficoll-induced antibody production in plasma at 0.5 mg/kg, po administered twice daily measured on day 4 by ELISA relative to control; assay type: functional; conditions: 96 h
Cytochrome P450 2C8 = target: T1, Cytochrome P450 2C8 (Homo sapiens, UniProt P10632); assay: Inhibition of CYP2C8 in human liver microsomes at 5 uM using amodiaquine as substrate after 20 mins in presence of NADPH by LC-MS/MS analysis; assay type: ADME
T1 sequence (P10632 whole entry): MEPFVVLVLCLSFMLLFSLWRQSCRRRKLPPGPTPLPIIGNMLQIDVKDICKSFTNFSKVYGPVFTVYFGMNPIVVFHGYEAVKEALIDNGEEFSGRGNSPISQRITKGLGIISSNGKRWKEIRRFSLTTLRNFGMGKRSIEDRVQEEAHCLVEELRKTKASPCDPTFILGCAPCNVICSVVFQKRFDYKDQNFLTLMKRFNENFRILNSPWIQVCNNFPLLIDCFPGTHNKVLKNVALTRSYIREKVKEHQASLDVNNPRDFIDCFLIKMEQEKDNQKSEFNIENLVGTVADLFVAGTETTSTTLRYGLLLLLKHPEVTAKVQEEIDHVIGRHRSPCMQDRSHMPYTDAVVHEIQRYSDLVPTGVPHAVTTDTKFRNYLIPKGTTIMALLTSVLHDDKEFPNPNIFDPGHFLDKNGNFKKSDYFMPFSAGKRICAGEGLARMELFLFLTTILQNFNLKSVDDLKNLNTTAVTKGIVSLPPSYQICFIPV

[13] = Permeability of the compound at 50 uM after 2 hrs by HPLC based PAMPA; assay type: ADME; conditions: read-out: permeability
Cytochrome P450 2D6 = Cytochrome P450 2D6 (Homo sapiens, UniProt P10635); assay: Inhibition of CYP2D6 in human liver microsomes at 5 uM using dextromethorphan as substrate after 20 mins in presence of NADPH by LC-MS/MS analysis; assay type: ADME
Cytochrome P450 2D6, sequence (P10635 whole entry): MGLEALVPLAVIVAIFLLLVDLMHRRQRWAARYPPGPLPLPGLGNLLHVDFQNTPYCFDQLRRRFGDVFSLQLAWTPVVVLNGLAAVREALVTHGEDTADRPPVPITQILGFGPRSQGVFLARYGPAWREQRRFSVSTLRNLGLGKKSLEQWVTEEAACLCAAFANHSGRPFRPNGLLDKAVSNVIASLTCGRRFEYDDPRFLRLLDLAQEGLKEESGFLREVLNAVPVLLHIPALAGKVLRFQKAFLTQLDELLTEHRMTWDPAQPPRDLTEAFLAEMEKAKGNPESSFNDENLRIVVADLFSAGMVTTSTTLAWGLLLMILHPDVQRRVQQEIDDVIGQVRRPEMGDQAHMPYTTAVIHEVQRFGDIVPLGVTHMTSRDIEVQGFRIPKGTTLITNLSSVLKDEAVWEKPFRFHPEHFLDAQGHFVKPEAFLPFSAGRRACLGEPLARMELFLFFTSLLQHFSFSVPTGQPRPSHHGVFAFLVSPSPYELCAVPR

Mus musculus [14] = assay: In vivo inhibition of PI3Kdelta in Balb/c mouse assessed as reduction in trinitrophenylated aminoethylcarboxymethyl-Ficoll-induced antibody production in plasma at 2 mg/kg, po administered twice daily measured on day 4 by ELISA relative to control; assay type: functional; conditions: 96 h
Homo sapiens [15] = species on record: Homo sapiens; assay: Selectivity ratio of IC50 for recombinant human full length N-terminal His6-tagged PI3K p110alpha/p85alpha expressed in baculovirus infected Sf21 cells to IC50 for recombinant human full length N-terminal His6-tagged PI3K p110delta/p85alpha expressed in baculovirus infected Sf21 cells
[16] = Tmax in Balb/c mouse at 1 mg/kg, iv or 3 mg/kg, po by LC-MS/MS analysis; assay type: ADME, organism-based; conditions: in vivo
Homo sapiens [17] = species on record: Homo sapiens; assay: Selectivity ratio of IC50 for recombinant human full length N-terminal His6-tagged PI3K p110beta/p85alpha expressed in baculovirus infected Sf21 cells to IC50 for recombinant human full length N-terminal His6-tagged PI3K p110delta/p85alpha expressed in baculovirus infected Sf21 cells
Cytochrome P450 2C19 = Cytochrome P450 2C19 (Homo sapiens, UniProt P33261); assay: Inhibition of CYP2C19 in human liver microsomes at 5 uM using S-mephenytoin as substrate after 20 mins in presence of NADPH by LC-MS/MS analysis; assay type: ADME
Cytochrome P450 2C19, sequence (P33261 whole entry): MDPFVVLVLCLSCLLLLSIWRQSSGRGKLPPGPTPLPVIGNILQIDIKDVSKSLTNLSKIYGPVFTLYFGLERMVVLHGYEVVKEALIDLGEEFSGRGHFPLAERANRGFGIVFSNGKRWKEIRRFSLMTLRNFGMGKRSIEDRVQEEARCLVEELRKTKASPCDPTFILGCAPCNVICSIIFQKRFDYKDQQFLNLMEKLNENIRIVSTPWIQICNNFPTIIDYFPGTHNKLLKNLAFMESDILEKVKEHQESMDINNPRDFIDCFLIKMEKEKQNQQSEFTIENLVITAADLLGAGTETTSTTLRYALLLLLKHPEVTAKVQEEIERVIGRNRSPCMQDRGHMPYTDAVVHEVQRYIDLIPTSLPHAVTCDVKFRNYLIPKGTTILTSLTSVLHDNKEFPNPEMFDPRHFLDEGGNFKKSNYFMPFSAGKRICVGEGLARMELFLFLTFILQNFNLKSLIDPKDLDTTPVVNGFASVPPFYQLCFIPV

Homo sapiens [18] = species on record: Homo sapiens; assay: Selectivity ratio of IC50 for recombinant human full length N-terminal His6-tagged PI3K p120gamma expressed in baculovirus infected Sf21 cells to IC50 for recombinant human full length N-terminal His6-tagged PI3K p110delta/p85alpha expressed in baculovirus infected Sf21 cells
Cytochrome P450 1A2 = target: T2, Cytochrome P450 1A2 (Homo sapiens, UniProt P05177); assay: Inhibition of CYP1A2 in human liver microsomes at 5 uM using phenacetin as substrate after 20 mins in presence of NADPH by LC-MS/MS analysis; assay type: ADME
T2 sequence (P05177 whole entry): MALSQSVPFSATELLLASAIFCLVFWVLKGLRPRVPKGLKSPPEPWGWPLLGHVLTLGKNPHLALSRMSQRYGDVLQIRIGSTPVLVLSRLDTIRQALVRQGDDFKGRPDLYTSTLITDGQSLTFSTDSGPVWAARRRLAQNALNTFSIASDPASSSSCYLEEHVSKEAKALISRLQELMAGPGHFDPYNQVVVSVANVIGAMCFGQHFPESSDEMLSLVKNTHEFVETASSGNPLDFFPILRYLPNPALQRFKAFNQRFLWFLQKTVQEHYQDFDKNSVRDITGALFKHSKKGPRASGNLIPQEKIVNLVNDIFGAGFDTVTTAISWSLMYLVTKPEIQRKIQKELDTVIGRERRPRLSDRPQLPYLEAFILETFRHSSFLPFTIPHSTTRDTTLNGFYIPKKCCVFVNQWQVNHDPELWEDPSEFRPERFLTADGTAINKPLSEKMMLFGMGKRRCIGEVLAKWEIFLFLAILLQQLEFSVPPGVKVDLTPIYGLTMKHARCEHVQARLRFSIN

Cytochrome P450 2C9 = Cytochrome P450 2C9 (Homo sapiens, UniProt P11712); assay: Inhibition of CYP2C9 in human liver microsomes at 5 uM using diclofenac as substrate after 20 mins in presence of NADPH by LC-MS/MS analysis; assay type: ADME
Cytochrome P450 2C9, sequence (P11712 whole entry): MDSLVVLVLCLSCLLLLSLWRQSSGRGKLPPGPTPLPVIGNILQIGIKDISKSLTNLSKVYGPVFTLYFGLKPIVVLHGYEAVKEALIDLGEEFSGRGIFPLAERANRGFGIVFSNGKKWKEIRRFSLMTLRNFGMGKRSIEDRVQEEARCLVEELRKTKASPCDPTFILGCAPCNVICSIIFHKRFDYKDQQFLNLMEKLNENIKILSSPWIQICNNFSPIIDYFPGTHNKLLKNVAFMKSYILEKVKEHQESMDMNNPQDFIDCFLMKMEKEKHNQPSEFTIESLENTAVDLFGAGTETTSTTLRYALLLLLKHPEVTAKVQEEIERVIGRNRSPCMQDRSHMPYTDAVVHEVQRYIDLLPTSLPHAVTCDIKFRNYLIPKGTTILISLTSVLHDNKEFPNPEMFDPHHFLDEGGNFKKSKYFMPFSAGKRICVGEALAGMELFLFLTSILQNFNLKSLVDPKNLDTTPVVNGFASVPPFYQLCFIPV

Mus musculus [19] = assay: In vivo inhibition of PI3Kdelta in Balb/c mouse assessed as reduction in trinitrophenylated aminoethylcarboxymethyl-Ficoll-induced antibody production in plasma administered orally twice daily measured on day 4 by ELISA; assay type: functional, organism-based
[20] = Metabolic stability in CD-1 mouse liver microsomes at 0.2 uM up to 45 mins in presence of NADPH by LC-MS/MS analysis; assay type: ADME, microsome; conditions: 0.75 h

Compound: COc1ncc(-c2cc(OC[C@@H]3CCCN(C(=O)C4CCN(CCC(F)(F)F)CC4)C3)c3cnn(C)c3n2)cc1NS(C)(=O)=O
IC50 [1]: 41 nM
Ratio IC50 (Homo sapiens [15]): 38

Compound: COc1ncc(-c2cc(O[C@@H]3CCN(C(=O)C4CCOCC4)C3)c3cnn(C)c3n2)cc1NS(C)(=O)=O
inhibition in vivo at 1 mg/kg (Mus musculus [3]): -2%
Stability [20]: Stable
inhibition in vivo at 2 mg/kg (Mus musculus [14]): 32%

Compound: COc1ncc(-c2cc(O[C@@H]3CCN(Cc4c(C)nn(C)c4C)C3)c3cnn(C)c3n2)cc1NS(C)(=O)=O
CLint scaled at 0.2 µM [7]: 620 mL/min/kg
inhibition in vivo at 2 mg/kg (Mus musculus [14]): 37%

Compound: COc1ncc(-c2cc(OC[C@@H]3CCCN(Cc4c(C)nn(C)c4C)C3)c3cnn(C)c3n2)cc1NS(C)(=O)=O
IC50 [1]: 1.4 nM
CLint scaled at 0.2 µM [7]: > 1000 mL/min/kg
Ratio IC50 (Homo sapiens [15]): 780

Compound: COc1ncc(-c2cc(OC[C@H]3CCCN(C(=O)C4CCOCC4)C3)c3cnn(C)c3n2)cc1NS(C)(=O)=O
IC50 [1]: 30 nM
Ratio IC50 (Homo sapiens [15]): 6.6

Compound: COc1ncc(-c2cc(O[C@H]3CC[C@H](NC(=O)C4CCOCC4)CC3)c3cnn(C)c3n2)cc1NS(C)(=O)=O
IC50 [1]: 150 nM

Compound: COc1ncc(-c2cc(OC[C@@H]3CCCN(C(=O)C4CCN(C(C)=O)CC4)C3)c3cnn(C)c3n2)cc1NS(C)(=O)=O
IC50 [1]: 4.6 nM
Ratio IC50 (Homo sapiens [15]): 260

Further lines, with some results ahead:

IC50 [1]: 1.3 nM
clearance [2]: 25.5 mL/min/kg
inhibition (INH) (Cytochrome P450 3A4): Not Active
bioavailability [4]: 73%
solubility at 20 h, 130 µM [5]: ≥ 100 µM
Cmax [6]: 230 ng/mL
CLint scaled at 0.2 µM [7]: 88 mL/min/kg
AUC(0-t) [8]: 1420 ng·h/mL
half-life [9]: 158 min
Vd [10]: 5.64 L/kg
fraction unbound at 6 h, 2 µM [11]: 0.23
inhibition (INH) (Cytochrome P450 2C8): Not Active
Papp at 2 h, 50 µM [13]: 22 ×10⁻⁶ cm/s
inhibition (INH) (Cytochrome P450 2D6): Not Active
Tmax [16]: 30 min
inhibition (INH) (Cytochrome P450 2C19): Not Active
inhibition (INH) (Cytochrome P450 1A2): Not Active
inhibition (INH) (Cytochrome P450 2C9): Not Active
Compound: COc1ncc(-c2cc(OC[C@@H]3CCCN(CCC4CCOCC4)C3)c3cnn(C)c3n2)cc1NS(C)(=O)=O
inhibition in vivo at 1 mg/kg (Mus musculus [3]): 68%
inhibition in vivo at 0.5 mg/kg (Mus musculus [12]): 56%
inhibition in vivo at 2 mg/kg (Mus musculus [14]): 83%
Ratio IC50 (Homo sapiens [15]): 430
Ratio IC50 (Homo sapiens [17]): 660
Ratio IC50 (Homo sapiens [18]): 3600
inhibition (Mus musculus [19]): Dose-dependent effect

IC50 [1]: 3.9 nM
Compound: COc1ncc(-c2cc(OC[C@@H]3CCCN(C(=O)C4CCOCC4)C3)c3cnn(C)c3n2)cc1NS(C)(=O)=O
Ratio IC50 (Homo sapiens [15]): 39
Ratio IC50 (Homo sapiens [17]): 1300
Ratio IC50 (Homo sapiens [18]): 490

IC50 [1]: 4.8 nM
Compound: COc1ncc(-c2cc(OC[C@@H]3CCCN(C(=O)CC4CCOC4)C3)c3cnn(C)c3n2)cc1NS(C)(=O)=O (stereo partly specified)
Ratio IC50 (Homo sapiens [15]): 210

IC50 [1]: 0.79 nM
CLint scaled at 0.2 µM [7]: 340 mL/min/kg
Compound: COc1ncc(-c2cc(OC[C@@H]3CCCN(CC4CCOCC4)C3)c3cnn(C)c3n2)cc1NS(C)(=O)=O
Ratio IC50 (Homo sapiens [15]): 87
Ratio IC50 (Homo sapiens [17]): 890
Ratio IC50 (Homo sapiens [18]): 3200

IC50 [1]: 63 nM
Compound: COc1ncc(-c2cc(OC3CN(C(=O)C4CCOCC4)C3)c3cnn(C)c3n2)cc1NS(C)(=O)=O
Ratio IC50 (Homo sapiens [15]): 3.7

IC50 [1]: 1.8 nM
CLint scaled at 0.2 µM [7]: 910 mL/min/kg
Compound: COc1ncc(-c2cc(OC[C@@H]3CCCN(CC4(C)COC4)C3)c3cnn(C)c3n2)cc1NS(C)(=O)=O
Ratio IC50 (Homo sapiens [15]): 570

IC50 [1]: 7.3 nM
Compound: COc1ncc(-c2cc(OC[C@@H]3CCCN(C(=O)c4cccnn4)C3)c3cnn(C)c3n2)cc1NS(C)(=O)=O
Ratio IC50 (Homo sapiens [15]): 35

IC50 [1]: 3.2 nM
CLint scaled at 0.2 µM [7]: > 1000 mL/min/kg
Compound: COc1ncc(-c2cc(OC[C@@H]3CCCN(Cc4cn(C)nc4C)C3)c3cnn(C)c3n2)cc1NS(C)(=O)=O
Ratio IC50 (Homo sapiens [15]): 730
